Like-named read-outs stand apart in the source and are kept apart here.
Tested on: panel of cell lines and tumor explants
Test: Soft agar (clonogenic) assay on cell lines and tumor explants
Type: cell-based, human
Conditions: Homo sapiens
Method: Compound IIa was tested against a panel of cell lines and tumor explants in a soft agar assay as described in Fiebig, H. H., Maier, A., and Burger, A. M. (Clonogenic assay with established human tumour xenorafts: correlation of in vitro to in vivo activity as a basis for anticancer drug discovery, Eur. J. Cancer 40, 802-820 (2004).) Table 16 lists the type of cancer, the name of the sample, its GI50 (concentration needed to achieve 50% growth inhibition) value in the assay, the logarithm of the GI50 (log(GI50), and the relative sensitivity of each sample (Differential). The differential is calculated by subtracting the log(GI50) for each cell line from the average log(GI50) across the entire panel (0.236 in this case); a positive value indicates a sample that is more sensitive than average, whereas a negative value indicates a sample that is less sensitive than average.

CC(C)(C)[C@H](c1nc(-c2cc(F)ccc2F)cn1Cc1ccccc1)N(CC[C@H](N)CF)C(=O)CO [Compound IIa]
GI50 (MOLT-4, Leukemia (ALL), sample MOLT4, read-out: GI50): 0.877 nM
GI50 (Mean across the entire panel, read-out: GI50): 1.72 nM
GI50 (Melanoma, sample 462, GI50 in nM, read-out: log(GI50) (converted)): ≥ 10 nM
GI50 (Melanoma, sample 462, read-out: GI50): 10 nM
GI50 (Melanoma, sample 989, GI50 in nM, read-out: log(GI50) (converted)): 12.7 nM
GI50 (Melanoma, sample 989, read-out: GI50): 12.7 nM
GI50 (Melanoma, sample 1341, GI50 in nM, read-out: log(GI50) (converted)): ≥ 10 nM
GI50 (Melanoma, sample 1341, read-out: GI50): 10 nM
GI50 (NSCLC, sample 211, GI50 in nM, read-out: log(GI50) (converted)): 0.216 nM
GI50 (NSCLC, sample 211, read-out: GI50): 0.216 nM
GI50 (NSCLC, sample 289, GI50 in nM, read-out: log(GI50) (converted)): 4.9 nM
GI50 (NSCLC, sample 289, read-out: GI50): 4.9 nM
GI50 (NSCLC, sample 526, GI50 in nM, read-out: log(GI50) (converted)): 1.26 nM
GI50 (NSCLC, sample 526, read-out: GI50): 1.26 nM
GI50 (NSCLC, sample 629, GI50 in nM, read-out: log(GI50) (converted)): ≥ 10 nM
GI50 (NSCLC, sample 629, read-out: GI50): 10 nM
GI50 (NSCLC, sample 677, GI50 in nM, read-out: log(GI50) (converted)): 1.16 nM
GI50 (NSCLC, sample 677, read-out: GI50): 1.16 nM
GI50 (NSCLC, sample 737, GI50 in nM, read-out: log(GI50) (converted)): 3.07 nM
GI50 (NSCLC, sample 737, read-out: GI50): 3.07 nM
GI50 (NSCLC, sample 1012, GI50 in nM, read-out: log(GI50) (converted)): 0.927 nM
GI50 (NSCLC, sample 1012, read-out: GI50): 0.926 nM
GI50 (NSCLC, sample 1176, GI50 in nM, read-out: log(GI50) (converted)): 3 nM
GI50 (NSCLC, sample 1176, read-out: GI50): 3 nM
GI50 (NSCLC, sample 1422, GI50 in nM, read-out: log(GI50) (converted)): 0.728 nM
GI50 (NSCLC, sample 1422, read-out: GI50): 0.728 nM
GI50 (NSCLC, sample 1647, GI50 in nM, read-out: log(GI50) (converted)): 16.7 nM
GI50 (NSCLC, sample 1647, read-out: GI50): 16.8 nM
GI50 (Ovarian, sample 899, GI50 in nM, read-out: log(GI50) (converted)): ≥ 10 nM
GI50 (Ovarian, sample 899, read-out: GI50): 10 nM
GI50 (Ovarian, sample 1353, GI50 in nM, read-out: log(GI50) (converted)): ≥ 10 nM
GI50 (Ovarian, sample 1353, read-out: GI50): 10 nM
GI50 (PC-3M, Prostate, sample PC3M, GI50 in nM, read-out: log(GI50) (converted)): 0.424 nM
GI50 (PC-3M, Prostate, sample PC3M, read-out: GI50): 0.424 nM
GI50 (Pancreas, sample 546, GI50 in nM, read-out: log(GI50) (converted)): 2.59 nM
GI50 (Pancreas, sample 546, read-out: GI50): 2.59 nM
GI50 (Pancreas, sample 736, GI50 in nM, read-out: log(GI50) (converted)): 1.26 nM
GI50 (Pancreas, sample 736, read-out: GI50): 1.26 nM
GI50 (Pancreas, sample 1657, GI50 in nM, read-out: log(GI50) (converted)): 27 nM
GI50 (Pancreas, sample 1657, read-out: GI50): 27 nM
GI50 (Pancreas, sample 1861, GI50 in nM, read-out: log(GI50) (converted)): 0.622 nM
GI50 (Pancreas, sample 1861, read-out: GI50): 0.623 nM
GI50 (Pancreas, sample 1869, GI50 in nM, read-out: log(GI50) (converted)): 10.9 nM
GI50 (Pancreas, sample 1869, read-out: GI50): 10.9 nM
GI50 (Pancreas, sample 1872, GI50 in nM, read-out: log(GI50) (converted)): 0.282 nM
GI50 (Pancreas, sample 1872, read-out: GI50): 0.282 nM
GI50 (Pancreas, sample 1876, GI50 in nM, read-out: log(GI50) (converted)): 0.337 nM
GI50 (Pancreas, sample 1876, read-out: GI50): 0.337 nM
GI50 (Pancreas, sample 1881, GI50 in nM, read-out: log(GI50) (converted)): 2.32 nM
GI50 (Pancreas, sample 1881, read-out: GI50): 2.32 nM
GI50 (Pancreas, sample 1887, GI50 in nM, read-out: log(GI50) (converted)): ≥ 10 nM
GI50 (Pancreas, sample 1887, read-out: GI50): 10 nM
GI50 (Pancreas, sample 1900, GI50 in nM, read-out: log(GI50) (converted)): 16.9 nM
GI50 (Pancreas, sample 1900, read-out: GI50): 16.9 nM
GI50 (Pancreas, sample 1912, GI50 in nM, read-out: log(GI50) (converted)): 0.112 nM
GI50 (Pancreas, sample 1912, read-out: GI50): 0.112 nM
GI50 (Pancreas, sample 1937, GI50 in nM, read-out: log(GI50) (converted)): 0.185 nM
GI50 (Pancreas, sample 1937, read-out: GI50): 0.185 nM
GI50 (Prostate, sample MRIH1579, GI50 in nM, read-out: log(GI50) (converted)): ≥ 10 nM
GI50 (Prostate, sample MRIH1579, read-out: GI50): 10 nM
GI50 (SCLC, sample 538, GI50 in nM, read-out: log(GI50) (converted)): 0.339 nM
GI50 (SCLC, sample 538, read-out: GI50): 0.339 nM
GI50 (SCLC, sample 573, GI50 in nM, read-out: log(GI50) (converted)): 0.587 nM
GI50 (SCLC, sample 573, read-out: GI50): 0.587 nM
GI50 (SCLC, sample 615, GI50 in nM, read-out: log(GI50) (converted)): 0.082 nM
GI50 (SCLC, sample 615, read-out: GI50): 0.082 nM
GI50 (SCLC, sample 650, GI50 in nM, read-out: log(GI50) (converted)): 0.376 nM
GI50 (SCLC, sample 650, read-out: GI50): 0.376 nM
GI50 (SCLC, sample H69, GI50 in nM, read-out: log(GI50) (converted)): 0.269 nM
GI50 (SCLC, sample H69, read-out: GI50): 0.269 nM
